# Experimental data from patent US9623078B2, “Method for treating cardiac infarction using HMGB1 fragment” (GENOMIX CO., LTD, priority 2012, dated 2017).
# Legend:
# [1] = system: PDGFRα-positive bone marrow mesenchymal stem cells; assay: Recruitment of PDGFRα-positive bone marrow-derived mesenchymal stem cells to myocardium in myocardial infarction model (GFP/PDGFRα immunofluorescence); type: in vivo, mouse; settings: N=4, P<0.05
# Protocol: (§1) Bone marrow cells were collected from the thigh bone/lower leg bone of three-week-old mice (C57BL6-CAG-GFP transgenic mice), and the bone marrow cell suspension was administered ([…]) to the tail vein of six-week-old mice (C57BL6) after irradiation (10GY) to produce bone marrow chimeric mice. Sixty days after bone marrow transplantation, left fourth interspace thoracotomy was performed under general anesthesia in the supine position, and the proximal left anterior descending coronary artery was ligated to produce an extensive myocardial infarction model (left anterior descending coronary artery/circumflex occlusion model). In making the HMGB1 protein low molecular, a fragment peptide (1-44) of the HMGB1 protein was developed in consideration of retaining the activity of recruiting bone marrow mesenchymal stem cells. […] Regarding the number of bone marrow-derived mesenchymal stem cells accumulated in the tissue, the number of cells positive for both GFP and PDGFRα present in all areas of randomly-selected 5 sections were determined and the mean value was calculated. […] Real-time PCR was performed with the Gene Amp(R) PCR System 9700 (Life Technologies Japan) using the above-mentioned cDNA as a template, and the levels of TNFα and IL-1β mRNA were determined as a ratio to the GAPDH mRNA level. […]
# TNFα mRNA = TNFα mRNA level in myocardial tissue of myocardial infarction model (real-time PCR); type: in vivo, mouse; settings: ratio to GAPDH mRNA level; N=4; negative control 11±3; P<0.05; day not stated in text (FIG. 1C: 7 and 56 days)
# Protocol: as §1
# IL-1β mRNA = IL-1β mRNA level in myocardial tissue of myocardial infarction model (real-time PCR); type: in vivo, mouse; settings: ratio to GAPDH mRNA level; N=4; negative control 6±1; P<0.05; day not stated in text (FIG. 1D: 7 and 56 days)
# Protocol: as §1
# [2] = system: acute stage myocardial infarction mouse model; assay: Cardiac function by echocardiography in myocardial infarction model; type: in vivo
# Protocol: Bone marrow cells were collected from the thigh bone/lower leg bone of three-week-old mice (C57BL6-CAG-GFP transgenic mice), and the bone marrow cell suspension was administered ([…]) to the tail vein of six-week-old mice (C57BL6) after irradiation (10GY) to produce bone marrow chimeric mice. Sixty days after bone marrow transplantation, left fourth interspace thoracotomy was performed under general anesthesia in the supine position, and the proximal left anterior descending coronary artery was ligated to produce an extensive myocardial infarction model (left anterior descending coronary artery/circumflex occlusion model). In making the HMGB1 protein low molecular, a fragment peptide (1-44) of the HMGB1 protein was developed in consideration of retaining the activity of recruiting bone marrow mesenchymal stem cells. At 6, 24, 48, 72, and 96 hours after infarction creation, the HMGB1 protein fragment peptide (1-44) (5 μg/300 μl), or 300 μl of PBS (negative control group) was administered five times to the tail vain. Mice were euthanized by administration of excess ketamine and xylazine, and their hearts were collected. After the tissues were embedded in OCT compound, cryosections of 5 μm thickness were prepared. […] Regarding the number of bone marrow-derived mesenchymal stem cells accumulated in the tissue, the number of cells positive for both GFP and PDGFRα present in all areas of randomly-selected 5 sections were determined and the mean value was calculated. […] Real-time PCR was performed with the Gene Amp(R) PCR System 9700 (Life Technologies Japan) using the above-mentioned cDNA as a template, and the levels of TNFα and IL-1β mRNA were determined as a ratio to the GAPDH mRNA level. Improvement in the cardiac function was evaluated by measuring the left ventricular end-diastolic diameter (LVDd: Dd), left ventricular end-systolic diameter (LVDs: Ds), and left ventricular ejection fraction (LVEF: EF) using the Vivid 7 Echocardiography System and 12-MHZ Transducer (General Electric).
substance,measurement,setting,value
"HMGB1 protein fragment peptide (1-44): peptide consisting of amino acids at positions 1 to 44 of an HMGB1 protein (SEQ ID NO: 3), produced by peptide synthesis (MGKGDPKKPRGKMSSYAFFVQTCREEHKKKHPDASVNFSEFSKK; Synthesized peptide from an HMGB1 protein)","number of PDGFRα-positive bone marrow-derived mesenchymal cells, non-infarction site","[1]; day 7 post infarction creation, 5 μg/300 μl tail vein x5 (6, 24, 48, 72, 96 h), negative control 32±9",52±11 cells/mm^2
same,"recruitment of PDGFRα-positive bone marrow mesenchymal stem cells in all areas (infarction, border, non-infarction sites) vs. negative control",[1]; seven days after creating myocardial infarction,significantly recruited
same,"TNFα mRNA level, non-infarction site",TNFα mRNA,4±2 GAPDH
same,"IL-1β mRNA level, non-infarction site",IL-1β mRNA,2±1 GAPDH
same,left ventricular end-diastolic diameter (DD),"[2]; Day 56 after infarction, N=8, negative control (N=16) 6.3±0.2, P<0.05",5.8±0.2 mm
same,left ventricular ejection fraction (EF),"[2]; Day 56 after infarction, N=8, negative control (N=16) 20±4, P<0.05",26±4%
same,"aggravation of left ventricular systolic function, left ventricular enlargement, and left ventricular remodeling","[2]; myocardial infarction model, five-day administration",significantly suppressed
